This is an account of results in ChEMBL document CHEMBL1158786, “Triterpenoid saponin anthranilates from Albizia grandibracteata leaves ingested by primates in Uganda” (J Nat Prod, 2005).

One experiment relates to MCF7. Kind of experiment: Cytotoxicity against human MCF7 cells. The format is functional, cell-based.
Another experiment concerns KB. Kind of experiment: Cytotoxicity against human KB cells. The experiment is classed as functional, cell-based.

On to `COc1cccc2c1C(=O)c1c(O)c3c(c(O)c1C2=O)C[C@@](O)(C(=O)CO)C[C@@H]3O[C@H]1C[C@H](N)[C@H](O)[C@H](C)O1` [DOXORUBICIN], for which the IC50 in the experiment with MCF7 and in the experiment on KB was 100 nM each time.
With `CC(=O)N[C@H]1[C@H](O[C@H]2CC[C@]3(C)[C@H]4CC=C5[C@@H]6CC(C)(C)[C@@H](OC(=O)c7ccccc7N)C[C@]6(C(=O)O[C@@H]6O[C@H](CO)[C@@H](O)[C@H](O)[C@H]6O[C@@H]6O[C@@H](C)[C@H](O[C@@H]7OC[C@@H](O)[C@H](O)[C@H]7O)[C@@H](O)[C@H]6O)[C@H](O)C[C@@]5(C)[C@]4(C)CC[C@H]3C2(C)C)O[C@H](CO[C@@H]2O[C@H](C)[C@H](O)[C@H](O)[C@H]2O[C@@H]2OC[C@@H](O)[C@H](O)[C@H]2O)[C@@H](O)[C@@H]1O` [GRANDIBRACTEOSIDE A], the IC50 is 400 nM in the experiment on MCF7 and 1300 nM in the experiment on KB.
As for `CC(=O)N[C@H]1[C@H](O[C@H]2CC[C@]3(C)[C@H]4CC=C5[C@@H]6CC(C)(C)[C@@H](OC(=O)c7ccccc7N)C[C@]6(C(=O)O[C@@H]6O[C@H](CO[C@@H]7O[C@H](CO)[C@@H](O)[C@H](O)[C@H]7O)[C@@H](O)[C@H](O)[C@H]6O[C@@H]6O[C@@H](C)[C@H](O[C@@H]7OC[C@@H](O)[C@H](O)[C@H]7O)[C@@H](O)[C@H]6O)[C@H](O)C[C@@]5(C)[C@]4(C)CC[C@H]3C2(C)C)O[C@H](CO[C@@H]2O[C@H](C)[C@H](O)[C@H](O)[C@H]2O[C@@H]2OC[C@@H](O)[C@H](O)[C@H]2O)[C@@H](O)[C@@H]1O` [GRANDIBRACTEOSIDE B], the concentration for half-maximal inhibition (IC50) with MCF7 came to 1700 nM; in the experiment on KB, 2300 nM.
On the same counts, the results for `CC(=O)N[C@H]1[C@H](O[C@H]2CC[C@]3(C)[C@H]4CC=C5[C@@H]6CC(C)(C)[C@@H](OC(=O)c7ccccc7N)C[C@]6(C(=O)O[C@@H]6O[C@H](CO)[C@@H](O)[C@H](O)[C@H]6O[C@@H]6O[C@@H](C)[C@H](O[C@@H]7O[C@@H](CO)[C@H](O)[C@H]7O)[C@@H](O[C@@H]7O[C@H](CO)[C@@H](O)[C@H](O)[C@H]7O)[C@H]6O)[C@H](O)C[C@@]5(C)[C@]4(C)CC[C@H]3C2(C)C)O[C@H](CO[C@@H]2O[C@H](C)[C@H](O)[C@H](O)[C@H]2O[C@@H]2OC[C@@H](O)[C@H](O)[C@H]2O)[C@@H](O)[C@@H]1O` [GRANDIBRACTEOSIDE C] are 1700 nM and 2300 nM.
